From US10633419B2, “Immunomodulators” (BRISTOL-MYERS SQUIBB COMPANY, priority 2014, dated 2020) come the findings set out here.

Each structure is given as a SMILES string. Starred links: 1 amine or outer side, 2 acyl side, 3 side chain; linkers in the order of their positions; H or OH if unused. Positions of bridges follow the written chain, without caps; N, C: chain ends. Non-standard residues stand in square brackets, D forms with d. Residues, ends and D or L forms follow the SMILES beside them. Groups on a side chain read outwards from the residue. *: point of attachment. Trp(1-CH2COOH) = N[C@@H](Cc1cn(CC(=O)O)c2ccccc12)C(=O)O; C18 diacid = O=C(O)CCCCCCCCCCCCCCCCC(=O)*; Phe(4-F) = N[C@@H](Cc1ccc(F)cc1)C(=O)O; γGlu = O=C(O)[C@H](CCC(=O)[*:2])N[*:1]; Ethylenediamine = C(CN[*:2])N[*:1]; Hyp = O=C(O)[C@@H]1C[C@@H](O)CN1; NMeNle = CCCC[C@H](NC)C(=O)O; Dap(Me) = CNC[C@H](N)C(=O)O; Pip = O=C(O)[C@@H]1CCCCN1; NMeA = CN[C@@H](C)C(=O)O; Pra = C#CC[C@H](N)C(=O)O; Dab = NCC[C@H](N)C(=O)O; Dap = NC[C@H](N)C(=O)O

The target in the test is T1, PD-L1 (Homo sapiens, UniProt Q9NZQ7).
T1 construct: hPDL1(19-239)-TVMV-His; made in house; host or cells: HEK293T
T1 sequence (Q9NZQ7 with tags, fused parts or gaps): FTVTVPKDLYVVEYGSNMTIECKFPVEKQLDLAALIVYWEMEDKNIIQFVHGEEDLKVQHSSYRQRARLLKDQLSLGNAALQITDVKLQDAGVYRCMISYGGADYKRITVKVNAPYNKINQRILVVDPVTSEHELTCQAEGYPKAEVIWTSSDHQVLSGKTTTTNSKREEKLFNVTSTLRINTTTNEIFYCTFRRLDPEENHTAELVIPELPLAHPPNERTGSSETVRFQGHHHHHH
Nature of the test: PD-1/PD-L1 Homogenous Time-Resolved Fluorescence (HTRF) binding assay (PD-1-Ig/PD-L1-His). The note with it: inhibition of PD-1-Ig binding to PD-L1-TVMV-His; value given as range class; read-out: HTRF IC50. The procedure, abridged: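 HTRF competition in dPBS with 0.1% BSA and 0.05% Tween-20: 20 nM PD-1-Ig added after 15 min compound pre-incubation with 10 nM PD-L1-His, then another 15 min. Signal (665/620 nm) after 30 min with APC anti-His (20 nM) and Eu anti-Ig (1 nM).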
The IC50 is the concentration that inhibits the measured activity by half. As for `CCCC[C@H]1C(=O)N(C)[C@@H](CCCC)C(=O)N[C@@H](CC(C)C)C(=O)N[C@H](C(=O)NCC(=O)N[C@@H](CC(=O)NCCNC(=O)CC[C@H](NC(=O)CCCCCCCCCCCCCCCCC(=O)O)C(=O)O)C(=O)O)CSCC(=O)N[C@@H](Cc2ccc(F)cc2)C(=O)N2CCCC[C@H]2C(=O)N[C@@H](CC(=O)O)C(=O)N2CCC[C@H]2C(=O)N[C@@H](CN)C(=O)N[C@@H](CC(C)C)C(=O)N2C[C@H](O)C[C@H]2C(=O)N[C@@H](Cc2c[nH]c3ccccc23)C(=O)N[C@@H](CCN)C(=O)N[C@@H](Cc2cn(CC(=O)O)c3ccccc23)C(=O)N1C` [Example 14124] ({CH2CO}-[Phe(4-F)][Pip]DP[Dap]L[Hyp]W[Dab][Trp(1-CH2COOH)][NMeNle][NMeNle]LCGD([Ethylenediamine-γGlu-C18 diacid])-OH; thioether N-14), the IC50 was 10 to 99 nM.
For the compound `CCCC[C@H]1C(=O)N(C)[C@@H](CCCC)C(=O)N[C@@H](CC(C)C)C(=O)N[C@H](C(=O)NCC(=O)N[C@@H](Cc2cn(CCOCCOCCOCCOCCOCCOCCOCCOCCOCCOCCOCCNC(=O)CCCNC(=O)CCCCCCCCCCCCCCCCC(=O)O)nn2)C(=O)O)CSCC(=O)N[C@@H](Cc2ccc(O)cc2)C(=O)N(C)[C@@H](C)C(=O)N[C@@H](CC(N)=O)C(=O)N2CCC[C@H]2C(=O)N[C@@H](CN)C(=O)N[C@@H](CC(C)C)C(=O)N2C[C@H](O)C[C@H]2C(=O)N[C@@H](Cc2c[nH]c3ccccc23)C(=O)N[C@@H](CCN)C(=O)N[C@@H](Cc2cn(CC(=O)O)c3ccccc23)C(=O)N1C` [Example 14125], the concentration for half-maximal inhibition (IC50) lay within 0.3 to 9.9 nM.
As for `CCCC[C@H]1C(=O)N(C)[C@@H](CCCC)C(=O)N[C@@H](CC(C)C)C(=O)N[C@H](C(=O)NCC(=O)N[C@@H](Cc2cn(CCCNC(=O)CCCCCCCCCCCCCCCCC(=O)O)nn2)C(=O)O)CSCC(=O)N[C@@H](Cc2ccc(O)cc2)C(=O)N(C)[C@@H](C)C(=O)N[C@@H](CC(N)=O)C(=O)N2CCC[C@H]2C(=O)N[C@@H](CN)C(=O)N[C@@H](CC(C)C)C(=O)N2C[C@H](O)C[C@H]2C(=O)N[C@@H](Cc2c[nH]c3ccccc23)C(=O)N[C@@H](CCN)C(=O)N[C@@H](Cc2cn(CC(=O)O)c3ccccc23)C(=O)N1C` [Example 14126], the IC50 fell in the range of 0.3 to 9.9 nM.
Then `C#CC[C@H](NC(=O)CNC(=O)CNC(=O)[C@@H]1CSCC(=O)N[C@@H](Cc2ccc(O)cc2)C(=O)N(C)[C@@H](C)C(=O)N[C@@H](CC(N)=O)C(=O)N2CCC[C@H]2C(=O)N[C@@H](CN)C(=O)N[C@@H](CC(C)C)C(=O)N2C[C@H](O)C[C@H]2C(=O)N[C@@H](Cc2c[nH]c3ccccc23)C(=O)N[C@@H](CCN)C(=O)N[C@@H](Cc2cn(CC(=O)O)c3ccccc23)C(=O)N(C)[C@@H](CCCC)C(=O)N(C)[C@@H](CCCC)C(=O)N[C@@H](CC(C)C)C(=O)N1)C(=O)O` [INT130AA] ({CH2CO}-Y[NMeA]NP[Dap]L[Hyp]W[Dab][Trp(1-CH2COOH)][NMeNle][NMeNle]LCGG[Pra]-OH; thioether N-14), with 10 to 99 nM.
`C#CC[C@H](NC(=O)CNC(=O)CNC(=O)CNC(=O)[C@@H]1CSCC(=O)N[C@@H](Cc2ccc(O)cc2)C(=O)N(C)[C@@H](C)C(=O)N[C@@H](CC(N)=O)C(=O)N2CCC[C@H]2C(=O)N[C@@H](CN)C(=O)N[C@@H](CC(C)C)C(=O)N2C[C@H](O)C[C@H]2C(=O)N[C@@H](Cc2c[nH]c3ccccc23)C(=O)N[C@@H](CCN)C(=O)N[C@@H](Cc2cn(CC(=O)O)c3ccccc23)C(=O)N(C)[C@@H](CCCC)C(=O)N(C)[C@@H](CCCC)C(=O)N[C@@H](CC(C)C)C(=O)N1)C(=O)O` [INT130AB] ({CH2CO}-Y[NMeA]NP[Dap]L[Hyp]W[Dab][Trp(1-CH2COOH)][NMeNle][NMeNle]LCGGG[Pra]-OH; thioether N-14): the IC50 was 10 to 99 nM.
Then `C#CC[C@H](NC(=O)CNC(=O)[C@@H]1CSCC(=O)N[C@@H](Cc2ccc(O)cc2)C(=O)N(C)[C@@H](C)C(=O)N[C@@H](CC(N)=O)C(=O)N2CCC[C@H]2C(=O)N[C@@H](CN)C(=O)N[C@@H](CC(C)C)C(=O)N2C[C@H](O)C[C@H]2C(=O)N[C@@H](Cc2c[nH]c3ccccc23)C(=O)N[C@@H](CCN)C(=O)N[C@@H](Cc2cn(CC(=O)O)c3ccccc23)C(=O)N(C)[C@@H](CCCC)C(=O)N(C)[C@@H](CCCC)C(=O)N[C@@H](CCC(=O)O)C(=O)N1)C(=O)O` [INT130AD] ({CH2CO}-Y[NMeA]NP[Dap]L[Hyp]W[Dab][Trp(1-CH2COOH)][NMeNle][NMeNle]ECG[Pra]-OH; thioether N-14), with 10 to 99 nM.
Then `C#CC[C@H](NC(=O)CNC(=O)[C@@H]1CSCC(=O)N[C@@H](Cc2ccc(O)cc2)C(=O)N(C)[C@@H](C)C(=O)N[C@@H](CC(=O)O)C(=O)N2CCC[C@H]2C(=O)N[C@@H](CN)C(=O)N[C@@H](CC(C)C)C(=O)N2C[C@H](O)C[C@H]2C(=O)N[C@@H](Cc2c[nH]c3ccccc23)C(=O)N[C@@H](CCN)C(=O)N[C@@H](Cc2cn(CC(=O)O)c3ccccc23)C(=O)N(C)[C@@H](CCCC)C(=O)N(C)[C@@H](CCCC)C(=O)N[C@@H](CCC(=O)O)C(=O)N1)C(=O)O` [INT130AE] ({CH2CO}-Y[NMeA]DP[Dap]L[Hyp]W[Dab][Trp(1-CH2COOH)][NMeNle][NMeNle]ECG[Pra]-OH; thioether N-14), with 10 to 99 nM; and `C#CC[C@H](NC(=O)[C@@H]1CSCC(=O)N[C@@H](Cc2ccc(O)cc2)C(=O)N(C)[C@@H](C)C(=O)N[C@@H](CC(N)=O)C(=O)N2CCC[C@H]2C(=O)N[C@@H](CN)C(=O)N[C@@H](CC(C)C)C(=O)N2C[C@H](O)C[C@H]2C(=O)N[C@@H](Cc2c[nH]c3ccccc23)C(=O)N[C@@H](CCN)C(=O)N[C@@H](Cc2cn(CC(=O)O)c3ccccc23)C(=O)N(C)[C@@H](CCCC)C(=O)N(C)[C@@H](CCCC)C(=O)N[C@@H](CC(C)C)C(=O)N1)C(=O)O` [INT130AF] ({CH2CO}-Y[NMeA]NP[Dap]L[Hyp]W[Dab][Trp(1-CH2COOH)][NMeNle][NMeNle]LC[Pra]-OH; thioether N-14), with 0.3 to 9.9 nM.
Then `C#CC[C@H](NC(=O)[C@@H]1CSCC(=O)N[C@@H](Cc2ccc(O)cc2)C(=O)N(C)[C@@H](C)C(=O)N[C@@H](CC(N)=O)C(=O)N2CCC[C@H]2C(=O)N[C@@H](CN)C(=O)N[C@@H](CC(C)C)C(=O)N2C[C@H](O)C[C@H]2C(=O)N[C@@H](Cc2c[nH]c3ccccc23)C(=O)N[C@@H](CCN)C(=O)N[C@@H](Cc2cn(CC(=O)O)c3ccccc23)C(=O)N(C)[C@@H](CCCC)C(=O)N(C)[C@@H](CCCC)C(=O)N[C@@H](CCC(=O)O)C(=O)N1)C(=O)O` [INT130AG] ({CH2CO}-Y[NMeA]NP[Dap]L[Hyp]W[Dab][Trp(1-CH2COOH)][NMeNle][NMeNle]EC[Pra]-OH; thioether N-14), with 0.3 to 9.9 nM.
With `C#CC[C@H](NC(=O)[C@@H]1CSCC(=O)N[C@@H](Cc2ccc(O)cc2)C(=O)N(C)[C@@H](C)C(=O)N[C@@H](CC(N)=O)C(=O)N2CCC[C@H]2C(=O)N[C@@H](CN)C(=O)N[C@@H](CC(C)C)C(=O)N2C[C@H](O)C[C@H]2C(=O)N[C@@H](Cc2c[nH]c3ccccc23)C(=O)N[C@@H](CCN)C(=O)N[C@@H](Cc2cn(CC(=O)O)c3ccccc23)C(=O)N(C)[C@@H](CCCC)C(=O)N(C)[C@@H](CCCC)C(=O)N[C@@H](CC(=O)O)C(=O)N1)C(=O)O` [INT130AH] ({CH2CO}-Y[NMeA]NP[Dap]L[Hyp]W[Dab][Trp(1-CH2COOH)][NMeNle][NMeNle]DC[Pra]-OH; thioether N-14), the IC50 is 0.3 to 9.9 nM.
In the case of `C#CC[C@H](NC(=O)CNC(=O)[C@@H]1CSCC(=O)N[C@@H](Cc2ccc(O)cc2)C(=O)N2CCCC[C@H]2C(=O)N[C@@H](CC(N)=O)C(=O)N2CCC[C@H]2C(=O)N[C@@H](CN)C(=O)N[C@@H](CC(C)C)C(=O)N2C[C@H](O)C[C@H]2C(=O)N[C@@H](Cc2c[nH]c3ccccc23)C(=O)N[C@@H](CCN)C(=O)N[C@@H](Cc2cn(CC(=O)O)c3ccccc23)C(=O)N(C)[C@@H](CCCC)C(=O)N(C)[C@@H](CCCC)C(=O)N[C@@H](CC(C)C)C(=O)N1)C(=O)O` [INT130AI] ({CH2CO}-Y[Pip]NP[Dap]L[Hyp]W[Dab][Trp(1-CH2COOH)][NMeNle][NMeNle]LCG[Pra]-OH; thioether N-14), the IC50 is 0.3 to 9.9 nM.
For `C#CC[C@H](NC(=O)CNC(=O)[C@@H]1CSCC(=O)N[C@@H](Cc2ccc(O)cc2)C(=O)N2CCCC[C@H]2C(=O)N[C@@H](CC(N)=O)C(=O)N2CCC[C@H]2C(=O)N[C@@H](CN)C(=O)N[C@@H](CC(C)C)C(=O)N2C[C@H](O)C[C@H]2C(=O)N[C@@H](Cc2c[nH]c3ccccc23)C(=O)N[C@@H](CCN)C(=O)N[C@@H](Cc2cn(CC(=O)O)c3ccccc23)C(=O)N(C)[C@@H](CCCC)C(=O)N(C)[C@@H](CCCC)C(=O)N[C@@H](CCC(=O)O)C(=O)N1)C(=O)O` [INT130AJ] ({CH2CO}-Y[Pip]NP[Dap]L[Hyp]W[Dab][Trp(1-CH2COOH)][NMeNle][NMeNle]ECG[Pra]-OH; thioether N-14), the IC50 was 0.3 to 9.9 nM.
To `C#CC[C@H](NC(=O)CNC(=O)[C@@H]1CSCC(=O)N[C@@H](Cc2ccc(O)cc2)C(=O)N2CCCC[C@H]2C(=O)N[C@@H](CC(N)=O)C(=O)N2CCC[C@H]2C(=O)N[C@@H](CNC)C(=O)N[C@@H](CC(C)C)C(=O)N2C[C@H](O)C[C@H]2C(=O)N[C@@H](Cc2c[nH]c3ccccc23)C(=O)N[C@@H](CCN)C(=O)N[C@@H](Cc2cn(CC(=O)O)c3ccccc23)C(=O)N(C)[C@@H](CCCC)C(=O)N(C)[C@@H](CCCC)C(=O)N[C@@H](CC(C)C)C(=O)N1)C(=O)O` [INT130AK] ({CH2CO}-Y[Pip]NP[Dap(Me)]L[Hyp]W[Dab][Trp(1-CH2COOH)][NMeNle][NMeNle]LCG[Pra]-OH; thioether N-14) belongs 0.3 to 9.9 nM.
Then `C#CC[C@H](NC(=O)CNC(=O)[C@@H]1CSCC(=O)N[C@@H](Cc2ccc(O)cc2)C(=O)N2CCCC[C@H]2C(=O)N[C@@H](CC(N)=O)C(=O)N2CCC[C@H]2C(=O)N[C@@H](CNC)C(=O)N[C@@H](CC(C)C)C(=O)N2C[C@H](O)C[C@H]2C(=O)N[C@@H](Cc2c[nH]c3ccccc23)C(=O)N[C@@H](CCN)C(=O)N[C@@H](Cc2cn(CC(=O)O)c3ccccc23)C(=O)N(C)[C@@H](CCCC)C(=O)N(C)[C@@H](CCCC)C(=O)N[C@@H](CCC(=O)O)C(=O)N1)C(=O)O` [INT130AL] ({CH2CO}-Y[Pip]NP[Dap(Me)]L[Hyp]W[Dab][Trp(1-CH2COOH)][NMeNle][NMeNle]ECG[Pra]-OH; thioether N-14), with 0.3 to 9.9 nM.
